According to the NIST ThermoML archive (doi:10.1021/acs.jced.5b00813):

What was measured:
[1] = xn = mol fraction of the nth substance listed; conditions: 298.15 K, 100 kPa, Liquid, Vibrating tube method
[2] = excess molar enthalpy (molar enthalpy of mixing); xn = mol fraction of the nth substance listed; conditions: 298.15 K, 100 kPa, Liquid, Calvet calorimetry
[3] = 298.15 K; 100 kPa; Liquid; Vibrating tube method
[4] = refractive index (Na D-line) (dimensionless); conditions: 298.15 K; 101.33 kPa; Liquid; Standard Abbe refractometry

COC(C)=O [methyl ethanoate] + CCCC(=O)OC
Conditions	mass density [kg/m3]
[1], x2 = 0	927.16

COC(C)=O [methyl ethanoate] + CCCCC(=O)OC
Conditions	mass density [kg/m3]
[1], x2 = 0	927.16

COC(C)=O [methyl ethanoate] + CCCCCCCC
Conditions	excess molar enthalpy [kcal/mol]	mass density [kg/m3]
[1], x2 = 0	–	927.16
[1], x2 = 0.0493	–	901.46
[1], x2 = 0.1011	–	878.04
[1], x2 = 0.1517	–	857.91
[1], x2 = 0.2033	–	839.55
[1], x2 = 0.253	–	823.66
[1], x2 = 0.3008	–	809.86
[1], x2 = 0.3471	–	797.79
[1], x2 = 0.3946	–	786.15
[1], x2 = 0.4523	–	773.45
[1], x2 = 0.4951	–	764.76
[1], x2 = 0.5307	–	758.11
[1], x2 = 0.5777	–	749.93
[1], x2 = 0.5898	–	747.92
[1], x2 = 0.6146	–	743.98
[1], x2 = 0.6388	–	740.27
[1], x2 = 0.6699	–	735.52
[1], x2 = 0.7238	–	728.1
[1], x2 = 0.7841	–	720.49
[1], x2 = 0.8333	–	714.64
[1], x2 = 0.8887	–	708.75
[1], x2 = 0.9311	–	704.69
[1], x2 = 0.9585	–	702.21
[2], x2 = 0.0466	0.0992	–
[2], x2 = 0.1009	0.194	–
[2], x2 = 0.1504	0.271	–
[2], x2 = 0.2057	0.338	–
[2], x2 = 0.258	0.391	–
[2], x2 = 0.3043	0.427	–
[2], x2 = 0.3516	0.455	–
[2], x2 = 0.3642	0.464	–
[2], x2 = 0.3999	0.479	–
[2], x2 = 0.446	0.487	–
[2], x2 = 0.5006	0.487	–
[2], x2 = 0.5742	0.467	–
[2], x2 = 0.6631	0.417	–
[2], x2 = 0.7615	0.331	–
[2], x2 = 0.8485	0.226	–
[2], x2 = 0.9324	0.107	–

CCCCC(=O)OC [methyl pentanoate]
Conditions	mass density [kg/m3]	refractive index
[3]	884.84	–
[4]	–	1.3968

CCCCC(=O)OC [methyl pentanoate] + CC(C)CC(C)(C)C
Conditions	excess molar enthalpy [kcal/mol]	mass density [kg/m3]
[1], x2 = 0	–	884.84
[1], x2 = 0.0537	–	871.44
[1], x2 = 0.1588	–	846.38
[1], x2 = 0.2505	–	825.53
[1], x2 = 0.3544	–	803.1
[1], x2 = 0.4518	–	783.06
[1], x2 = 0.4984	–	773.84
[1], x2 = 0.5417	–	765.44
[1], x2 = 0.642	–	746.75
[1], x2 = 0.6854	–	738.97
[1], x2 = 0.7425	–	728.98
[1], x2 = 0.7967	–	719.79
[1], x2 = 0.8148	–	716.75
[1], x2 = 0.8415	–	712.32
[1], x2 = 0.8779	–	706.53
[1], x2 = 0.8999	–	702.99
[1], x2 = 0.9409	–	696.52
[2], x2 = 0.0438	0.0344	–
[2], x2 = 0.0963	0.0672	–
[2], x2 = 0.1589	0.105	–
[2], x2 = 0.2206	0.137	–
[2], x2 = 0.2692	0.159	–
[2], x2 = 0.3311	0.177	–
[2], x2 = 0.3825	0.191	–
[2], x2 = 0.436	0.201	–
[2], x2 = 0.4818	0.207	–
[2], x2 = 0.5239	0.211	–
[2], x2 = 0.5638	0.212	–
[2], x2 = 0.5679	0.211	–
[2], x2 = 0.6024	0.208	–
[2], x2 = 0.6258	0.205	–
[2], x2 = 0.7031	0.189	–
[2], x2 = 0.7813	0.157	–
[2], x2 = 0.8452	0.121	–
[2], x2 = 0.9243	0.071	–
